Data as given in patent US8394823B2, “Triazolopyridine compounds useful as DGAT1 inhibitors” (Bristol-Myers Squibb Company, priority 2008, dated 2013).

Each molecule was assayed against T1, recombinant human DGAT1 (Homo sapiens, UniProt O75907) (assay: DGAT1 enzyme assay). Conditions: membranes from Sf9 insect cells expressing recombinant human DGAT1; 25 μM 2-monooleoyl-glycerol, 25 μM [3H]-stearoyl-CoA, pH 7.4, 30 min, 25° C., SPA.
T1 construct: made in house; host or cells: Sf9 insect cells (baculovirus)
T1 sequence (O75907 1-488): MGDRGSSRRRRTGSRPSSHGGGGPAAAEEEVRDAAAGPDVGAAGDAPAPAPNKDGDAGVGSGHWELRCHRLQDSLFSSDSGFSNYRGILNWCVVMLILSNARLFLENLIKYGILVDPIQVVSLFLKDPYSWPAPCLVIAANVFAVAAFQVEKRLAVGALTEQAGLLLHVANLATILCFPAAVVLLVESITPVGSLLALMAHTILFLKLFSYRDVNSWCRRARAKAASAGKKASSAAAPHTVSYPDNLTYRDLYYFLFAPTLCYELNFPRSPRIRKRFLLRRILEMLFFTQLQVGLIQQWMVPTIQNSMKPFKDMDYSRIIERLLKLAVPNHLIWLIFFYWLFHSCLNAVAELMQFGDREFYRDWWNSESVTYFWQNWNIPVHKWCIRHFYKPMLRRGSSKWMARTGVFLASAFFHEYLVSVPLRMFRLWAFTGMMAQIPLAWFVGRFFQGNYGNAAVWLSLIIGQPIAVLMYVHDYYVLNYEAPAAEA
Assay type: biochemical
Protocol: DGAT1 enzyme assays were conducted using membranes isolated from Sf9 insect cells expressing the recombinant human DGAT1 cDNA. The assays were conducted in 384-well plates with total volume of 25 μl at 25° C. In each assay, 300 ng of recombinant human DGAT1 membrane was incubated with 25 μM of 2-monooleoyl-glycerol and 25 μM of [^3H]-stearoyl-CoA in 100 mM potassium phosphate (pH 7.4) for 30 min with various concentrations of compounds delivered in DMSO. The assay was terminated by the addition of 30 μl of Stopping Solution [50 mM HEPES, 5 mg/ml Yittrium Oxide (YOX) Polylysine SPA beads, 3.33 mg/ml Fraction V BSA, 200 μM Mercuric chloride]. The signal was measured using LEADSEEKER^SM for 5 minutes. To calculate the degree of inhibition, the zero level of enzyme activity (blank) was defined by the above assay using Sf9 cell membrane uninfected with baculovirus and the 100% level of DGAT1 enzyme activity was defined by human DGAT1 assay with the vehicle DMSO. The IC50 values of inhibitors were determined by Excel-fit.

| Structure (SMILES) | IC50 |
| --- | --- |
| CC(C)[C@H](Cc1nnc2cc(-c3ccc(Nc4nc5ccc(Cl)cc5s4)cc3)ccn12)C(=O)O [Example 1, (S)-2-((7-(4-(6-Chlorobenzo[d]thiazol-2-ylamino)phenyl)-[1,2,4]triazolo[4,3-a]pyridin-3-yl)methyl)-3-methylbutanoic acid] | 10 nM |
| COC(=O)[C@@H](Cc1nnc2cc(-c3ccc(Nc4nc5ccc(Cl)cc5s4)cc3)ccn12)C(C)C [Example 1F, (S)-Methyl 2-((7-(4-(6-chlorobenzo[d]thiazol-2-ylamino)phenyl)-[1,2,4]triazolo[4,3-a]pyridin-3-yl)methyl)-3-methylbutanoate] | 7200 nM |
| CC(C)[C@@H](Cc1nnc2cc(-c3ccc(Nc4nc5ccc(Cl)cc5s4)cc3)ccn12)C(=O)O [Example 2, (R)-2-((7-(4-(6-Chlorobenzo[d]thiazol-2-ylamino)phenyl)-[1,2,4]triazolo[4,3-a]pyridin-3-yl)methyl)-3-methylbutanoic acid] | 160 nM |
| COC(=O)[C@H](Cc1nnc2cc(-c3ccc(Nc4nc5ccc(Cl)cc5s4)cc3)ccn12)C(C)C [Example 2B, (R)-Methyl 2-((7-(4-(6-chlorobenzo[d]thiazol-2-ylamino)phenyl)-[1,2,4]triazolo[4,3-a]pyridin-3-yl)methyl)-3-methylbutanoate] | 15000 nM |
| CC(C)C[C@H](Cc1nnc2cc(-c3ccc(Nc4nc5ccc(Cl)cc5s4)cc3)ccn12)C(=O)O [Example 3, (R)-2-((7-(4-(6-Chlorobenzo[d]thiazol-2-ylamino)phenyl)-[1,2,4]triazolo[4,3-a]pyridin-3-yl)methyl)-4-methylpentanoic acid] | 320 nM |
| COC(=O)[C@@H](Cc1nnc2cc(-c3ccc(Nc4nc5ccc(Cl)cc5s4)cc3)ccn12)CC(C)C [Example 3B, (R)-Methyl 2-((7-(4-(6-chlorobenzo[d]thiazol-2-ylamino)phenyl)-[1,2,4]triazolo[4,3-a]pyridin-3-yl)methyl)-4-methylpentanoate] | 25000 nM |
| CC(C)C[C@@H](Cc1nnc2cc(-c3ccc(Nc4nc5ccc(Cl)cc5s4)cc3)ccn12)C(=O)O [Example 4, (S)-2-((7-(4-(6-Chlorobenzo[d]thiazol-2-ylamino)phenyl)-[1,2,4]triazolo[4,3-a]pyridin-3-yl)methyl)-4-methylpentanoic acid] | 2800 nM |

Other lines, results leading:

| IC50 | Structure (SMILES) |
| --- | --- |
| 50000 nM | COC(=O)[C@H](Cc1nnc2cc(-c3ccc(Nc4nc5ccc(Cl)cc5s4)cc3)ccn12)CC(C)C [Example 4B, (S)-Methyl 2-((7-(4-(6-chlorobenzo[d]thiazol-2-ylamino)phenyl)-[1,2,4]triazolo[4,3-a]pyridin-3-yl)methyl)-4-methylpentanoate] |
| 200 nM | CCCC[C@H](Cc1nnc2cc(-c3ccc(Nc4nc5ccc(Cl)cc5s4)cc3)ccn12)C(=O)O [Example 5, (R)-2-((7-(4-(6-Chlorobenzo[d]thiazol-2-ylamino)phenyl)-[1,2,4]triazolo[4,3-a]pyridin-3-yl)methyl)hexanoic acid] |
| 3600 nM | O=C(O)[C@@H](Cc1nnc2cc(-c3ccc(Nc4nc5ccc(Cl)cc5s4)cc3)ccn12)CC1CCCCC1 [Example 6, (R)-3-(7-(4-(6-Chlorobenzo[d]thiazol-2-ylamino)phenyl)-[1,2,4]triazolo[4,3-a]pyridin-3-yl)-2-(cyclohexylmethyl)propanoic acid] |
| 2800 nM | O=C(O)[C@@H](Cc1nnc2cc(-c3ccc(Nc4nc5ccc(Cl)cc5s4)cc3)ccn12)C1CCCCC1 [Example 7, (S)-3-(7-(4-(6-Chlorobenzo[d]thiazol-2-ylamino)phenyl)-[1,2,4]triazolo[4,3-a]pyridin-3-yl)-2-cyclohexylpropanoic acid] |
| 490 nM | O=C(O)CCc1nnc2cc(-c3ccc(Nc4nc5ccc(Cl)cc5s4)cc3)ccn12 [Example 8, 3-(7-(4-(6-Chlorobenzo[d]thiazol-2-ylamino)phenyl)-[1,2,4]triazolo[4,3-a]pyridin-3-yl)propanoic acid] |
